Assay results published in patent US20220323442A1, “ENTERIC-COATED PREPARATION COMPRISING XANTHINE OXIDASE INHIBITOR” (Nippon Chemiphar Co., Ltd., priority 2019, published 2022).

Assay: Volume average particle size (D50) by laser diffraction
Format: physicochemical
Conditions: amorphous Compound 14 (spray dried), dispersed in 0.2% Aerosol OT aqueous solution, ultrasonic 30 seconds
Source text: The volume average particle size (D50) can usually be measured by dispersing the measurement sample in a solvent such as water or ethanol and measuring the particle size distribution by a laser diffraction method. The measurement sample may be dispersed in a solvent by irradiation of ultrasonic waves or the like. The particle size distribution can be measured by a particle size distribution measuring device (for example, Shimadzu laser diffraction type particle size distribution measuring device SALD-2200). The volume average particle size (D50) can be determined from the obtained particle size distribution result. A commercially available software (for example, Shimadzu WingSALD-2200 version 1.02) can be used for data collection and analysis.
A volume average particle size (D50) of the obtained amorphous Compound 14 was measured with a Shimadzu laser diffraction type particle size distribution measuring device SALD-2200 using a dispersion obtained by adding about 2 mg of a sample to a 0.2% Aerosol OT aqueous solution and irradiating the solution with ultrasonic waves for 30 seconds for dispersion. Shimadzu WingSALD-2200 version 1.02 software was used for data collection and analysis. […] The volume average particle size (D50) of amorphous Compound 14 obtained from the particle size distribution was 2.949 μm.

Structure (SMILES): N#Cc1cc(-c2nc3c(O)ncnc3s2)ccc1Oc1ccccc1 [Compound 14, 2-(3-Cyano-4-phenoxyphenyl)-7-hydroxythiazolo(5,4-d]pyrimidine]
- volume average particle size (D50): 2.949 μm
